Values of other authors in patent US9161929B2, “Solvent cast film sustained release latanoprost implant” (ALLERGAN, INC., priority 2011, dated 2015).

CC(C)OC(=O)CCC/C=C\C[C@@H]1[C@@H](CC[C@@H](O)CCc2ccccc2)[C@H](O)C[C@@H]1O [Latanoprost]
solubility in acetone, ethanol, ethyl acetate, isopropanol, methanol and octanol: freely soluble
